The values below come from patent US11964943B2, “3,5-diarylidenyl-n-substituted-piperid-4-one-derived inhibitors of Stat3 pathway activity and uses thereof” (priority 2017, dated 2024).

Molecules are shown by their SMILES.

Format in all cases: cell-based
The subject of experiment [1] is DU145 cells. In words: Colony formation assay with paclitaxel. The settings on record: 0.4 μM IE-8 + 0.003 μM paclitaxel, 10 days. The method, then:
DU145 cells were seeded at 1000 cells/well in 6-well plates and allowed to adhere overnight. Cells were treated after seeding with IE-8, paclitaxel, and a combination thereof, and incubated without any further manipulation for 10 days until the control (untreated) wells had <200 colonies formed. Colonies were fixed with ice-cold 100% Methanol, washed with PBS, stained with crystal violet (0.5% w/v) for 5 minutes and counted using a colony-counting function of the Fusion 15.12 software.

Experiment [2] concerns BRCA1, FANCD2, EME1 and MUS81. In words: RT-PCR and immunoblotting of DNA ICL repair factors. The settings on record: DU145 cells, 18 h. The method, then: Whole cell lysates were prepared by incubation of harvested, trypsinised cells with CelLytic™ lysis buffer (Sigma-Aldrich) supplemented with 1× protease and 1× phosphatase inhibitors (Roche). Protein quantification was carried out using a protein assay kit (Bio-Rad). 40 μg of the lysates were denatured by heating for 5 min at 95° C. in sample buffer containing 100 mM Tris-Cl (pH 6.8), 4% SDS, 10% 2-mercaptoethanol, 20% glycerol, and 0.02% bromophenol blue. Precision Plus Protein Dual colour standards (Bio-Rad) were used as a molecular weight reference. For the detection of STAT3, pSTAT3, α/β tubulin, cleaved PARP, Bcl-2, Bcl-xL, FANCD2, BRCA1, EME1 and MUS81, proteins were separated on a NuPAGE 7% Tris-acetate gel (Life Technologies) and subsequently transferred to polyvinylidene difluoride membranes (Immobilon®-P transfer membrane; Millipore). […]
After drug-treatment cells were harvested by trypsinisation followed by centrifugation. […] TaqMan Gene Expression Assays (Life Technologies) for FANCD2, BRCA1, EME1 and MUS81 were used to quantify changes in gene expression. […] Fold change was calculated using the comparative CT method normalizing to GAPDH expression.
RT-PCR. […] TaqMan Gene Expression Assays (Life Technologies) for FANCD2, BRCA1, EME1 and MUS81 were used to quantify changes in gene expression. […] Fold change was calculated using the comparative CT method normalizing to GAPDH expression.
(In general: A western blot detects proteins with antibodies after separation by electrophoresis.)

Experiment [3] concerns HCT116-oxaliplatin resistant cells. In words: Colony formation assay with oxaliplatin. To be noted: 10 days. The method, then: HCT116-oxaliplatin res cells were seeded at 2000 cells/well in 6-well plates and allowed to adhere overnight. The next day, oxaliplatin and IE-8 were added simultaneously. First, the specific amount of cells solution was removed from each well and afterwards the same volume of the appropriate drug dilution was added to achieve the right concentration. IE-8 was diluted in DMA. Cells were also treated with Oxaliplatin and IE-8 alone. The plates were left the incubator and the cells were allowed to grow colonies for 10 days. After 10 days the entire cell solution was removed from each well, which was subsequently washed with 500 μl of PBS. 1 ml of cold 100% methanol was added and the plates were incubated for 30 minutes at 4 C. After a second wash, the cells were stained with 1 ml of […] staining dye for 2-3 minutes, rinsed with water, allowed to dry overnight and the colonies were quantified using a gel imaging system (Fusion Fx7) and its in-built colony counter software.

In experiment [4] the test system is γ-H2AX. In words: γ-H2AX immunofluorescence staining. The settings on record: DU145, 1.2 μM 18 h then 60 μM cisplatin 1 h. How it is done:
For Stat3, pStat3 staining, 2.5×10^4 cells/ml were plated on 13-mm glass cover slip (VWR) in 24 well plates, allowed to adhere and processed the next day. Cells were treated with IE-8 for 18 h, and subsequently washed in ice cold PBS and fixed with 2% paraformaldehyde PFA (Alfa Aesar) for 10 min at room temperature, followed by permeabilization with PBS containing 0.5% Triton X-100 for 10 min. Cells were blocked in PBS 5% BSA for 1 h at ambient temperature. Respective proteins were identified by incubation for 4 h with anti-Stat3 and anti-pStat3 rabbit polyclonal antibodies (1:1000, Cell signalling) or anti-phospho-Histone H2A.X mouse monoclonal (1:500; Millipore) diluted in a PBS 1% BSA buffer. Cells were incubated with a secondary fluorescent conjugated antibody Alexa Fluor 488 (1:500; Life Technologies) for 2 h at RT. Nuclei were stained using propidium iodide (2 μg/ml; Sigma-Aldrich) and mounted on glass slides with mounting medium (Dako).
To quantify γ-H2AX foci from images obtained using the protocol above, the program CellProfiler was utilized. Each cell nucleus was identified and the number of foci within computationally counted. The number of foci was taken as an average from the first 30 cells measured with a detection threshold of 0.3.

Experiment [5] relates to DU145 cells. Kind of experiment: Annexin V/PI apoptosis assay. The settings on record: DU145, 24 h, increasing concentrations.
Protocol: Cells were seeded in 24-well plates at densities of 10×10^4 cells/well (A2780-cisplatin resistant) and 1.6×10^4 cells/well (DU145) and allowed to grow at 37° C. overnight prior to treatment. […] At the end of the drug incubations, the supernatant along with the trypsinised cells were collected in falcon tubes and spun for 3 min at 300 g. Cell pellets were resuspended in PBS and transferred to fresh Eppendorf tubes. After a final round of centrifugation, cell pellets were gently resuspended in 150 μl of a Annexin V-FITC labelled solution in binding buffer (2 μl per 150 μl buffer; Binding buffer: 10 mM Hepes/NaOH, pH 7.4, 140 mM NaCl and 2.5 mM CaCl2) and incubated in the dark at 37° C. for 15 min. Cells were subsequently stained with 150 μl of a 200 mg/mL PI-solution and samples were immediately processed with the flow cytometer. […] The data were analysed and presented using the FlowJo software.
Annexin V/Propidium iodide Apoptosis/Cell death was assessed by flow cytometry using the FITC-conjugated annexin V protein (Affymetrix, eBioscience) and propidium iodide double staining. […] Cells were subsequently counterstained with the addition of PI (200 μg/ml) and analysed on a Millipore Guava easyCyte™ 8HT flow cytometer using the InCyte software. The derived data were analysed as dot plots and quantified using the FlowJo software (TreeStar).

As to `COc1cc(/C=C2\CN(c3ccccc3)C/C(=C\c3cc(OC)c(OC)c(OC)c3)C2=O)cc(OC)c1OC` [IE-8, 3,5-Di(3,4,5-trimethoxybenzylidene)-1-phenylpiperidin-4-one], the colony formation entry in experiment [1] is given as “no colonies were formed”. Moreover, the “expression of BRCA1, FANCD2, EME1 and MUS81 (mRNA and protein)” value in experiment [2] was “markedly downregulated”. Further, the number of colonies result in experiment [3] (0.1 μM IE-8 + 1 μM oxaliplatin) is listed as “about 60”; in experiment [3] (0.1 μM IE-8 + 2 μM oxaliplatin) it was “Less than 25”. Moreover, the “DNA-damage response to cisplatin (γ-H2Ax induction)” value in experiment [4] is on record as “enhanced”. Moreover, the “apoptotic cells (Annexin V/PI)” value in experiment [5] was “dose-dependent increase in apoptotic cells”.
